Laboratory results as given in article PMC9295122, “Sialic Acid Derivatives Inhibit SiaT Transporters and Delay Bacterial Growth” (ACS Chemical Biology, 2022).
Values after ≈ are worked out from the molar mass of the structure shown.

Legend:
SiaT from P. mirabilis = target: T1, SiaT from P. mirabilis (Proteus mirabilis, UniProt B4EZY7); assay: biochemical; assay type: biochemical; details: for type of inhibition: PmSiaT, Lineweaver–Burk plot; for Ki: proteoliposome assay, Lineweaver–Burk, read-out: PmSiaT Ki
T1 construct: made in house
Method: To gain further insights into the molecular mechanisms, we investigated the direct effects of compounds 3e and 3f on the transport activity in proteoliposomes reconstituted with PmSiaT and SaSiaT. A kinetic analysis was performed by measuring the concentration-dependent uptake of [^3H]Neu5Ac in the presence of two different concentrations of the inhibitors 3f (Figure 5a,c) or 3e (Figure 5b,d).
Figure 5 Kinetic analysis of the inhibition of recombinant SiaT from P. mirabilis (A,B) and S. aureus (C,D) reconstituted in proteoliposomes and [^3H]Neu5Ac efflux in proteoliposomes (E,F). (a–d) Data were plotted according to Lineweaver–Burk as a reciprocal transport rate vs reciprocal Neu5Ac concentration. The transport rate was measured, in 5 min, by adding [^3H] Neu5Ac at the indicated concentrations to proteoliposomes containing 20 mM K^+-gluconate in the presence of valinomycin as described in the Supporting Information. [(A,B) P. mirabilis SiaT]; (A) compound 3f 0.25 μM (●) or 0.75 μM (□) was added in comparison to samples without inhibitor (○). (B) Compound 3e 12 μM (●) or 40 μM (□) was added in comparison to samples without an inhibitor (○). [(C,D) S. aureus SiaT]. (C) Compound 3f 80 μM (●) or 200 μM (□) was added in comparison to samples without an inhibitor (○). (D) Compound 3e 5 μM (●) or 12 μM (□) was added in comparison to samples without an inhibitor (○). Results are mean ± s.d. from four independent experiments (n = 4). […] Data are calculated as the percent of residual activity with respect to the control sample (efflux time zero). The results are the means ± s.d. of three independent experiments.
The purified SiaT from P. mirabilis and S. aureus was reconstituted by using the detergent removal procedure with the batchwise method previously pointed out.[16],[21] In brief, 2.5 μg or 5 μg of P. mirabilis and S. aureus SiaT, respectively, were mixed with 120 μL 10% C12E8, 100 μL of 10% egg yolk phospholipids (w/v, in the form of sonicated liposomes as previously described),[43] 20 mM of K^+-gluconate, and 20 mM Hepes Tris pH 7.0 in a final volume of 700 μL. The reconstitution mixture was incubated with 0.5 g Amberlite XAD-4 resin under rotatory stirring (1200 rpm) at 25 °C for 40 min.[44] The amount of reconstituted protein was estimated as previously described.[16]
For uptake experiments, 600 μL of proteoliposomes were loaded onto a Sephadex G-75 column (0.7 cm diameter × 15 cm height), pre-equilibrated with 20 mM Hepes Tris pH 7.0 with 40 mM sucrose to balance the internal osmolarity. Then, valinomycin (0.75 μg/mg phospholipid), prepared in ethanol, was added to the eluted proteoliposomes to generate a K^+ diffusion potential, as previously described. After 10 s of incubation with valinomycin, the transport was started by adding different concentrations of [^3H]-Neu5Ac (as indicated in the figures) to 100 μL proteoliposomes in the presence of 10 mM NaCl for P. mirabilis and 50 mM NaCl for S. aureus. For kinetic measurement, the initial transport rate was measured by stopping the reaction after 5 min, that is, within the initial linear range of [^3H]-Neu5Ac uptake into the proteoliposomes previously described. For efflux measurements, proteoliposomes were preloaded by incubation with [^3H]-Neu5Ac (as indicated in the figures) in the presence of 10 mM NaCl for P. mirabilis and 50 mM NaCl for S. aureus for 20 min. Efflux was started by adding 0.1 mM Neu5Ac or inhibitors to the preloaded proteoliposomes. In both uptake and efflux experiments, the transport assay was terminated by loading each proteoliposome sample (100 μL) on a Sephadex G-75 column (0.6 cm diameter × 8 cm height) to remove the external radioactivity. Proteoliposomes were eluted with 1 mL of 50 mM NaCl and collected in a 4 mL of scintillation mixture, vortexed and counted.

[1] = Plasma-protein binding by RED, rat; assay type: in vitro ADME; details: pH 7.2, read-out: Plasma-protein binding by RED (% unbound compound, average n=2)
Method: The assay was run in a deep well plate containing RED inserts with semipermeable dialysis membranes. The reaction was started by adding the compounds to a blank plasma in a 5 μM concentration. Opposite to the blank plasma was a compartment containing isotonic sodium–phosphate buffer (pH 7.2) separated from the plasma by the membrane. The plate was equilibrated in a water bath at 37 °C for 4 h. Samples from both the plasma and the buffer side were matrix compensated before protein precipitation. The samples were centrifuged, and the supernatants were diluted and analyzed by LC–MS/MS to determine the % unbound compound. Two incubations per compound per species.

Solid solubility = assay type: physicochemical; details: phosphate buffer, pH 7.4, aqueous buffer, thermodynamic from solid; from solid material, tested up to 2000 μM; read-out: Solid solubility in 0.1 M phosphate buffer pH 7.4
Source text: Duplicate samples per compound.

[2] = Neu5Ac transport by PmSiaT in proteoliposomes

T1 sequence (B4EZY7 whole entry): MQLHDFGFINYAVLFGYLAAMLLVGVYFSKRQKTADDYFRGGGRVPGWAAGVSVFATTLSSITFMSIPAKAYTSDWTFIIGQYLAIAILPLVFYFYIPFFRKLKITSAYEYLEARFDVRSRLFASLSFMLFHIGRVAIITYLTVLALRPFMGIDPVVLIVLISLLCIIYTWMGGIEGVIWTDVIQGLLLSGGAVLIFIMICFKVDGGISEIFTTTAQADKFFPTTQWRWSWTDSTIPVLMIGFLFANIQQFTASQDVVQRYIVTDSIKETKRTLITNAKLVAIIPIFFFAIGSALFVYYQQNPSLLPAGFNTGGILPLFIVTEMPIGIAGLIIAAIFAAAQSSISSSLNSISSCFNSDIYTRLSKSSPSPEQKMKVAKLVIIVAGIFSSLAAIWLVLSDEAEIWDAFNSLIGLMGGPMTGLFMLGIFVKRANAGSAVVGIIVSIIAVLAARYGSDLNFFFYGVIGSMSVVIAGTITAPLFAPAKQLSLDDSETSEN

With `CC(=O)NC1C(OCc2cc(F)cc(F)c2)CC(O)(C(=O)O)OC1C(O)C(O)CO` (stereo not drawn) [Compound 3e] the type of inhibition (SiaT from P. mirabilis) was “competitive inhibitors”, the Ki (SiaT from P. mirabilis) was 9.9 ± 2.6 µM and the fraction unbound at 4 h, 5 μM [1] was 0.67. For the same molecule, the solubility (Solid solubility) was greater than 2000 µM.
Work on `CC(=O)NC1C(OCc2ccccc2)CC(O)(C(=O)O)OC1C(O)C(O)CO` (stereo not drawn) [Compound 3a] yielded a fraction unbound at 4 h, 5 μM [1] of 0.72 and a solubility (Solid solubility) greater than 2000 µM.
In the case of `CC(=O)NC1C(OCc2cc(Br)cc(Br)c2)CC(O)(C(=O)O)OC1C(O)C(O)CO` (stereo not drawn) [Compound 3f], the type of inhibition (SiaT from P. mirabilis) is reported as “competitive inhibitors”, the Ki (SiaT from P. mirabilis) is reported as 0.13 ± 0.04 µM and the fraction unbound at 4 h, 5 μM [1] is reported as 0.21. For the same molecule, the solubility (Solid solubility) was 1630 µM (≈ 908 µg/mL).
For `CC(=O)N[C@H]1[C@H]([C@H](O)[C@H](O)CO)OC(O)(C(=O)O)C[C@@H]1O` (stereo partly drawn) [Neu5Ac, 5-N-acetyl neuraminic acid, reference compound], the Km (SiaT from P. mirabilis; [2]) was 7.5 ± 1.6 µM and the Vmax (SiaT from P. mirabilis; [2]) was 180 ± 56 nmol/mg protein/min.
